In patent US6583180B2, “Glucocorticoid receptor modulators” (Abbott Laboratories, priority 2001, dated 2003):

Columns and labels:
[1] = molecular target: T1, Human glucocorticoid receptors (Homo sapiens, UniProt P04150); assay: Radioligand filter binding assay, displacement of 3[H]-dexamethasone from hGR; details: read-out: GR Binding (% Inhibition at 1.7 μM)
T1 construct: made in house; host or cells: Sf9 insect cells, recombinant baculovirus (BAC-TO-BAC)
T1 sequence (P04150 1-777): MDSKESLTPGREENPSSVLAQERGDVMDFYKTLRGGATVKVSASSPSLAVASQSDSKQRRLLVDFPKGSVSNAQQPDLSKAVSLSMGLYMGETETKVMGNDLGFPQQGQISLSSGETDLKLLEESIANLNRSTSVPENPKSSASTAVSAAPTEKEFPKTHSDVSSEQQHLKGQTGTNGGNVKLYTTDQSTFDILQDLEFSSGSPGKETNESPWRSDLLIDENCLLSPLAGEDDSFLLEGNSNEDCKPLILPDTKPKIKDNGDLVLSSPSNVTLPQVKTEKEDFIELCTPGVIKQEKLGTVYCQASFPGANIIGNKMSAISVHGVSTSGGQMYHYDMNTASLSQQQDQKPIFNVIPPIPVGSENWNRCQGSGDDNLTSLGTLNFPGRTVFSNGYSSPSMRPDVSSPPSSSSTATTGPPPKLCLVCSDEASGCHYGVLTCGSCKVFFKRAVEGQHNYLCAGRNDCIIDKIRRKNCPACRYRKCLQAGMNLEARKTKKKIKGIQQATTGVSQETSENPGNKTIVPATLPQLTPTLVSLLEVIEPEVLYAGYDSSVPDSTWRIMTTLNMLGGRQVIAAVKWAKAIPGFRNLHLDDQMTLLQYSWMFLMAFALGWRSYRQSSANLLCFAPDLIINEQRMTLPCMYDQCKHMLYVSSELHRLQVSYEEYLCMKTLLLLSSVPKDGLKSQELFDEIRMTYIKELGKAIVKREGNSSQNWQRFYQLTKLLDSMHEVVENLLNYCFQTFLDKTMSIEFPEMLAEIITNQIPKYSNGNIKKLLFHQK
How it was run: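 Recombinant hGR extract from baculovirus-infected Sf9 cells (final ~1 nM receptor) incubated with ³H-dexamethasone and test compound dilutions in duplicate, EDTA/phosphate pH 8 buffer with MTG, overnight (15-20 h) at +4° C. Bound label collected on PEI-treated GF/B filters and scintillation-counted; IC50 from four-parameter fit of corrected cpm.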

[2] = molecular target: T2, progesterone receptor (PR) (Homo sapiens, UniProt P06401); assay: Radioligand binding assay for progesterone receptor (similar protocol);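 also: radioligand binding measured with cytosol preparations containing the human progesterone receptor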
T2 sequence (P06401 1-933): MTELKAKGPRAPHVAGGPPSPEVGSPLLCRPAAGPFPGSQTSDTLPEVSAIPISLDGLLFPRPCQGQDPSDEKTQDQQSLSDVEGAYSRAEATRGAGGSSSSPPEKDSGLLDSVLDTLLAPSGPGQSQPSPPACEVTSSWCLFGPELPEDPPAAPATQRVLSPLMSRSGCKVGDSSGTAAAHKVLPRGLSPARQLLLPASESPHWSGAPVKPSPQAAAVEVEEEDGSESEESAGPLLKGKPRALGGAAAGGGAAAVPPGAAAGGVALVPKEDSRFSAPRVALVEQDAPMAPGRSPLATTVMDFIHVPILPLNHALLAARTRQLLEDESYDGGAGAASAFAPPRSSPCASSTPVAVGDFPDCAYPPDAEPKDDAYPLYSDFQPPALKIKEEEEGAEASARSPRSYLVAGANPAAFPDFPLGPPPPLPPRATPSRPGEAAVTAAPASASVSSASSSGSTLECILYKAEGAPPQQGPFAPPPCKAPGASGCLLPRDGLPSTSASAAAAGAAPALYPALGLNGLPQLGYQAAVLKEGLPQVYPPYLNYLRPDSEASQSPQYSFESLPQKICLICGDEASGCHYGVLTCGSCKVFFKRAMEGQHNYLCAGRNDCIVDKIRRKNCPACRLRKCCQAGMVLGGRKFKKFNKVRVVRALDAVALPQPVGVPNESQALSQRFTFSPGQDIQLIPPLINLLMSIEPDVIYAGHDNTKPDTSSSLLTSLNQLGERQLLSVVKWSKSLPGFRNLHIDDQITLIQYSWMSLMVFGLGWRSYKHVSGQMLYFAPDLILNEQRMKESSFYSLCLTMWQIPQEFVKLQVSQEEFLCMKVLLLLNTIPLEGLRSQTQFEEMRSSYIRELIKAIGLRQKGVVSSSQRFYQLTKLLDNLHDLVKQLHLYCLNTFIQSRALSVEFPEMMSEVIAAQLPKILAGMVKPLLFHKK
Text: Methods for Radiolipand Binding Studies with Human Glucocorticoid and Progesterone Receptor Cytosol

Row | inhibition at 1.7 µM [1] | IC50 [2] | SMILES
1 | 96.2% | 685 nM | Cc1c(NS(C)(=O)=O)cccc1N(Cc1ccccc1)Cc1ccc(Oc2ccc(CCC(=O)NCCC(=O)O)cc2)cc1 [Example 105, N-[3-(4-{4-[(benzyl{2-methyl-3-[(methylsulfonyl)amino]phenyl}amino)methyl]phenoxy}phenyl)propanoyl]-beta-alanine]
2 | 91.1% | 660 nM | CCCOc1ccc(CN(Cc2ccc(F)cc2F)c2cccc(NS(C)(=O)=O)c2C)cc1 [Example 43, N-{3-[(2,4-difluorobenzyl)(4-propoxybenzyl)amino]-2-methylphenyl}methanesulfonamide]
3 | 94.3% | 551 nM | Cc1c(NS(C)(=O)=O)cccc1N(Cc1ccccc1)Cc1ccc(Oc2ccc(CCC(=O)NCCCO)cc2)cc1 [Example 151, 3-(4-{4-[(benzyl{2-methyl-3-[(methylsulfonyl)amino]phenyl}amino)methyl]phenoxy}phenyl)-N-(3-hydroxypropyl)propanamide]
4 | 95.7% | 583 nM | Cc1c(NS(C)(=O)=O)cccc1N(Cc1ccccc1)Cc1ccc(Oc2ccc(CCC(=O)NCC(=O)O)cc2)cc1 [Example 104, N-[3-(4-{4-[(benzyl{2-methyl-3-[(methylsulfonyl)amino]phenyl}amino)methyl]phenoxy}phenyl)propanoyl]glycine]
5 | 97.3% | > 1000 nM | Cc1c(NS(C)(=O)=O)cccc1N(Cc1ccccc1)Cc1ccc(Oc2cccc(OCCNC(=O)CCC(=O)O)c2)cc1 [Example 78, 4-{[2-(3-{4-[(benzyl{2-methyl-3-[(methylsulfonyl)amino]phenyl}amino)methyl]phenoxy}phenoxy)ethyl]amino}-4-oxobutanoic acid]
6 | 96.2% | 648 nM | COCCOc1cc(Oc2ccc(CN(Cc3ccccc3)c3cccc(NS(C)(=O)=O)c3C)cc2)ccc1CCCC(=O)O [Example 63]
7 | 88.1% | 600 nM | Cc1c(NS(C)(=O)=O)cccc1N(Cc1ccccc1Br)Cc1ccccc1Br [Example 1, N-{3-[bis(2-bromobenzyl)amino]-2-methylphenyl}methanesulfonamide]
8 | 94.3% | 896 nM | Cc1c(NS(C)(=O)=O)cccc1N(Cc1ccccc1)Cc1ccc(Oc2ccc(CCC(=O)NCCO)cc2)cc1 [Example 152, 3-(4-{4-[(benzyl{2-methyl-3-[(methylsulfonyl)amino]phenyl}amino)methyl]phenoxy}phenyl)-N-(2-hydroxyethyl)propanamide]
9 | 84.2% | 430 nM | C=CCOc1ccc(CN(Cc2ccc(F)cc2F)c2cccc(NS(C)(=O)=O)c2C)cc1 [Example 20, N-{3-[[4-(allyloxy)benzyl](2,4-difluorobenzyl)amino]-2-methylphenyl}methanesulfonamide]
10 | 93.5% | 1180 nM | CCOC(=O)CCCc1ccc(Oc2ccc(CN(Cc3ccccc3)c3cccc(NS(C)(=O)=O)c3C)cc2)cc1 [Example 64, ethyl 4-(4-{4-[(benzyl{2-methyl-3-[(methylsulfonyl)amino]phenyl}amino)methyl]phenoxy}phenyl)butanoate]
11 | 96.9% | 351 nM | Cc1c(NS(C)(=O)=O)cccc1N(Cc1ccc(F)cc1)Cc1ccc(Oc2ccc(CCC(=O)O)cc2)cc1 [Example 85, 3-(4-{4-[((4-fluorobenzyl){2-methyl-3-[(methylsulfonyl)amino]phenyl}amino)methyl]phenoxy}phenyl)propanoic acid]
12 | 97.4% | 123 nM | Cc1c(NS(C)(=O)=O)cccc1N(Cc1ccc(Oc2cccc(OCCCC(=O)NCCC(=O)O)c2)cc1)Cc1ccc(F)cc1F [Example 324, N-(4-(3-(4-(((2,4-difluorobenzyl)(2-methyl-3-((methylsulfonyl)amino)phenyl)amino)methyl)phenoxy)phenoxy)butanoyl)-beta-alanine]
13 | 92.7% | > 10000 nM | Cc1c(NS(C)(=O)=O)cccc1N(Cc1ccc(OCC=Cc2ccccc2)cc1)Cc1ccc(F)cc1F [Example 33, N-{3-[(2,4-difluorobenzyl)(4-{[3-phenyl-2-propenyl]oxy}benzyl)amino]-2-methylphenyl}methanesulfonamide]
14 | 98.2% | 66.6 nM | Cc1c(NS(C)(=O)=O)cccc1N(Cc1ccc(Oc2ccc(Br)c(OCC(=O)O)c2)cc1)Cc1ccc(F)cc1F [Example 323, (2-bromo-5-(4-(((2,4-difluorobenzyl)(2-methyl-3-((methylsulfonyl)amino)phenyl)amino)methyl)phenoxy)phenoxy)acetic acid]
15 | 93.5% | 1330 nM | Cc1c(NS(C)(=O)=O)cccc1N(Cc1ccccc1)Cc1ccc(Oc2ccc(CCC(=O)NCCN3CCOCC3)cc2)cc1 [Example 147, 3-(4-{4-[(benzyl{2-methyl-3-[(metbylsulfonyl)amino]phenyl}amino)methyl]phenoxy}phenyl)-N-(2-morpholin-4-ylethyl)propanamide]
16 | 89% | 667 nM | COC(=O)c1cccc(Oc2ccc(CN(Cc3ccc(F)cc3F)c3cccc(NS(C)(=O)=O)c3C)cc2)c1 [Example 67, methyl 3-{4-[((2,4-difluorobenzyl){2-methyl-3-[(methylsulfonyl)amino]phenyl}amino)methyl]phenoxy}benzoate]
17 | 90% | > 10000 nM | Cc1c(NS(C)(=O)=O)cccc1N(Cc1ccc(OCc2ccccc2)cc1)Cc1ccc(F)cc1F [Example 34, N-{3-[[4-(benzyloxy)benzyl](2,4-difluorobenzyl)amino]-2-methylphenyl}methanesulfonamide]
18 | 91.7% | 255 nM | Cc1c(NS(C)(=O)=O)cccc1N(Cc1ccccc1)Cc1ccc(Oc2ccc(CCC(=O)NCCCCCCO)cc2)cc1 [Example 153, 3-(4-{4-[(benzyl{2-methyl-3-[(methlsulfonyl)amino]phenyl}amino)methyl]phenoxy}phenyl)-N-(6-hydroxyhexyl)propanamide]
19 | 96.5% | 214 nM | Cc1c(NS(C)(=O)=O)cccc1N(Cc1ccc(Oc2cccc(OCC(=O)O)c2)cc1)Cc1ccc(F)cc1F [Example 110, (3-{4-[((2,4-difluorobenzyl){2-methyl-3-[(methylsulfonyl)amino]phenyl}amino)methyl]phenoxy}phenoxy)acetic acid]
20 | 96.2% | 622 nM | Cc1c(NS(C)(=O)=O)cccc1N(Cc1ccccc1)Cc1ccc(Oc2cccc(OCCNS(C)(=O)=O)c2)cc1 [Example 81, N-[2-(3-{4-[(benzyl{2-methyl-3-[(methylsulfonyl)amino]phenyl}amino)methyl]phenoxy}phenoxy)ethyl]methanesulfonamide]
21 | 97.9% | 468 nM | Cc1c(NS(C)(=O)=O)cccc1N(Cc1ccc(Oc2ccc(CCC(=O)O)cc2)cc1)Cc1ccccc1F [Example 84, 3-(4-{4-[((2-fluorobenzyl){2-methyl-3-[(methylsulfonyl)amino]phenyl}amino)methyl]phenoxy}phenyl)propanoic acid]
